Laboratory results: patent US20140093499A1, “PHARMACEUTICAL COMBINATIONS COMPRISING DUAL ANGIOPOIETIN-2 / DLL4 BINDERS AND ANTI-VEGF AGENTS” (BOEHRINGER INGELHEIM INTERNATIONAL GMBH, priority 2012, published 2014)

Experiments:
[1] = system: RXF 1220 renal cancer xenograft; experiment: RXF 1220 patient-derived tumor xenograft efficacy in nude mice; type: in vivo, human; details: BI-1 13.6 mg/kg twice weekly i.p., Sunitinib 40 mg/kg once daily, Bevacizumab 15 mg/kg twice weekly i.p.
Excerpt: (§1) The goal of the present study was to assess the efficacy of BI-1 in combination with Bevacizumab, BIBF1120 or Sunitinib in models of human non small cell lung cancer (LXFE 211, LXFE 1422), colon cancer (CXF 243), mammary cancer (MAXF 401), ovarian cancer (OVXF 1353), pancreatic cancer (PAXF 546) and renal cancer (RXF 1220) in nude mice. All models were patient-derived tumor xenografts (PDX), which were transplanted from patients to nude mice and passaged subcutaneously. These models retain most of the characteristics of the parental patient tumors including histology.
Sunitinib (Sutent®, Pfizer) tablets were ground with mortar and pestle and 108.48 mg powder (corresponding to 32 mg API; correction factor: 3.39) were dissolved in PBS (pH 5).
Tumor fragments were obtained from tumor xenografts in serial passage in nude mice. […] Mice were monitored daily. […]
(§2) The doses of BI-1 and Bevacizumab were calculated to the average body weight of all mice on day 1 (28 g) and administered intraperitoneally twice weekly in a volume of 100 μl per mouse. […]
(§3) Tumor diameters were measured twice weekly with a caliper. The volume of each tumor [in mm^3] was calculated according to the formula “tumor volume=length*diameter^2*0.5.” To monitor side effects of treatment, mice were inspected daily for abnormalities and body weight was determined twice weekly. […]

[2] = Body weight and deaths in PDX tumor-bearing nude mice; details: mouse, in vivo
Procedure: Mice were 5-7 week-old female Crl:NMRI-Foxn1^nu purchased from Charles River, Sulzfeld, Germany. After arrival, mice were allowed to adjust to ambient conditions for at least 5 days before they were used for the experiments. They were housed in individual ventilated Makrolon® type II long cages under standardized conditions at 25±1° C. temperatures and 55±10% humidity. Standardized diet (Teklad Global 19% Protein Extruded Diet (T.20195.12) from Harlan Laboratories) and sterile filtrated and acidified (pH 2.5) tap water were provided ad libitum. Ear clips were used to identify each mouse. Cage cards showing the study number, the animal identification number, the compound and dose level, the administration route as well as the schedule remained with the animals throughout the study.
Tumor diameters were measured twice weekly with a caliper. The volume of each tumor [in mm^3] was calculated according to the formula “tumor volume=length*diameter^2*0.5.” To monitor side effects of treatment, mice were inspected daily for abnormalities and body weight was determined twice weekly. Animals with tumor sizes exceeding 1.5 cm in diameter or 20% body weight loss were euthanized for ethical reasons.

[3] = system: LXFE 1422 non small cell lung cancer xenograft; experiment: LXFE 1422 patient-derived tumor xenograft efficacy in nude mice; type: in vivo, human; details: BI-1 13.6 mg/kg twice weekly i.p., BIBF1120 50 mg/kg once daily p.o., Bevacizumab 15 mg/kg twice weekly i.p.
Excerpt: as §1
(§4) Tumor fragments were obtained from tumor xenografts in serial passage in nude mice. After removal from donor mice, tumors were cut into fragments (4-5 mm diameter) and placed in PBS until subcutaneous implantation. Recipient mice were anesthetized by inhalation of isoflurane. […] Mice were monitored daily. […]
as §2, §3

[4] = system: MAXF 401 mammary cancer xenograft; experiment: MAXF 401 patient-derived tumor xenograft efficacy in nude mice; type: in vivo, human; details: BI-1 13.6 mg/kg twice weekly i.p., BIBF1120 50 mg/kg once daily p.o., Bevacizumab 15 mg/kg twice weekly i.p.
Excerpt: as §1, §4, §2, §3

[5] = system: LXFE 211 non small cell lung cancer xenograft; experiment: LXFE 211 patient-derived tumor xenograft efficacy in nude mice; type: in vivo, human; details: BI-1 13.6 mg/kg twice weekly i.p., BIBF1120 50 mg/kg once daily p.o., Bevacizumab 15 mg/kg twice weekly i.p.
Excerpt: as §1, §4, §2, §3

[6] = system: human non-small cell lung cancer (NCl-H1975) xenografts; experiment: NCl-H1975 subcutaneous xenograft efficacy in nude mice; type: in vivo; details: NCl-H1975, day 1 to day 14; Bevacizumab 25 mg/kg twice weekly i.p., BIBF 1120 50 mg/kg daily p.o., BI-1 13.6 mg/kg twice weekly i.p.
Procedure: The goal of the present study was to assess the efficacy of BI-1 in combination with Bevacizumab and BIBF 1120 in a model of human non small cell lung cancer (NCl-H1975) in nude mice.
• Model: Subcutaneous xenografts of the human non-small cell lung cancer (NCl-H1975) growing in nude mice
To establish subcutaneous tumors, NCl-H1975 cells were harvested by centrifugation, washed and resuspended in PBS+5% FCS at 5×10^7 cells/ml. 100 μl cell suspension containing 5×10^6 cells was then injected subcutaneously into the right flank of the mice (1 site per mouse). Mice were randomly distributed between the treatment and the vehicle control group (7 days after cell injection) when tumors were well established and had reached volumes of 63 to 104 mm3.
The doses of BI-1 and Bevacizumab were calculated to the average body weight of all mice on day 1 (28 g) and administered intraperitoneally twice weekly in a volume of 100 μl per mouse. BIBF 1120 was dosed according to the body weight (mg/kg) and administered daily perorally.
Tumor diameters were measured three times a week (Monday, Wednesday and Friday) with a caliper. The volume of each tumor [in mm3] was calculated according to the formula “tumor volume=length*diameter2*π/6.” To monitor side effects of treatment, mice were inspected daily for abnormalities and body weight was determined three times a week (Monday, Wednesday and Friday). […]

[7] = system: PAXF 546 pancreatic cancer xenograft; experiment: PAXF 546 patient-derived tumor xenograft efficacy in nude mice; type: in vivo, human; details: BI-1 13.6 mg/kg twice weekly i.p., BIBF1120 50 mg/kg once daily p.o., Bevacizumab 15 mg/kg twice weekly i.p.
Excerpt: as §1, §4, §2, §3

[8] = system: CXF 243 colon cancer xenograft; experiment: CXF 243 patient-derived tumor xenograft efficacy in nude mice; type: in vivo, human; details: BI-1 13.6 mg/kg twice weekly i.p., BIBF1120 50 mg/kg once daily p.o., Bevacizumab 15 mg/kg twice weekly i.p.
Excerpt: as §1, §4, §2, §3

[9] = system: OVXF 1353 ovarian cancer xenograft; experiment: OVXF 1353 patient-derived tumor xenograft efficacy in nude mice; type: in vivo, human; details: BI-1 13.6 mg/kg twice weekly i.p., BIBF1120 50 mg/kg once daily p.o., Bevacizumab 15 mg/kg twice weekly i.p.
Excerpt: as §1, §4, §2, §3

Row | Compound | TGI [1] [%] | maximum median body weight loss [2] [%] | TGI [3] [%] | TGI [4] [%] | TGI [5] [%] | median TGI (tumor growth inhibition) [6] [%] | TGI [7] [%] | TGI [8] [%] | TGI [9] [%]
1 | CCN(CC)CCNC(=O)c1c(C)[nH]c(/C=C2\C(=O)Nc3ccc(F)cc32)c1C [Sunitinib] | 62 |  |  |  |  |  |  |  | 
2 | Bevacizumab |  | 9.1 | 63 | 68 | 37 | 82 | 59 |  | 
3 | COC(=O)c1ccc2c(c1)NC(=O)/C2=C(\Nc1ccc(N(C)C(=O)CN2CCN(C)CC2)cc1)c1ccccc1 [BIBF 1120] |  | 5.9 | 57 | 63 | 40 | 75 | 69 | 65 | 78
